Measured values from the NIST ThermoML archive (doi:10.1021/je2008582).

Conditions: Liquid, Vibrating tube method

CCCCCCCC/C=C\CCCCCCCC(=O)OC [methyl cis-9-octadecenoate]
Conditions | mass density [kg/m3]
270 K, 490 kPa | 892.3
270 K, 990 kPa | 892.6
270 K, 1990 kPa | 893.2
270 K, 2990 kPa | 893.7
270 K, 3990 kPa | 894.3
270 K, 4990 kPa | 894.8
270 K, 9990 kPa | 897.4
270 K, 19990 kPa | 902.4
270 K, 29990 kPa | 907.1
270 K, 39990 kPa | 911.7
270 K, 49830 kPa | 915.9
290 K, 490 kPa | 877.7
290 K, 1000 kPa | 878
290 K, 2000 kPa | 878.6
290 K, 3000 kPa | 879.2
290 K, 3990 kPa | 879.8
290 K, 4990 kPa | 880.4
290 K, 10000 kPa | 883.3
290 K, 19990 kPa | 888.7
290 K, 29990 kPa | 893.8
290 K, 39990 kPa | 898.7
290 K, 49960 kPa | 903.4
310 K, 490 kPa | 863.3
310 K, 990 kPa | 863.6
310 K, 2000 kPa | 864.3
310 K, 3000 kPa | 865
310 K, 4000 kPa | 865.6
310 K, 5000 kPa | 866.2
310 K, 9990 kPa | 869.3
310 K, 20000 kPa | 875.3
310 K, 29990 kPa | 880.8
310 K, 39990 kPa | 886.1
310 K, 49990 kPa | 891.1
330 K, 500 kPa | 849
330 K, 1000 kPa | 849.3
330 K, 2000 kPa | 850.1
330 K, 3000 kPa | 850.8
330 K, 3990 kPa | 851.5
330 K, 4990 kPa | 852.2
330 K, 10000 kPa | 855.6
330 K, 19990 kPa | 862
330 K, 29990 kPa | 868
330 K, 39990 kPa | 873.6
330 K, 49990 kPa | 878.9
350 K, 500 kPa | 834.6
350 K, 990 kPa | 835
350 K, 2000 kPa | 835.8
350 K, 2990 kPa | 836.6
350 K, 3990 kPa | 837.3
350 K, 5000 kPa | 838.1
350 K, 9990 kPa | 841.8
350 K, 20000 kPa | 848.8
350 K, 30000 kPa | 855.3
350 K, 40000 kPa | 861.3
350 K, 49980 kPa | 867
370 K, 500 kPa | 820.1
370 K, 990 kPa | 820.6
370 K, 1990 kPa | 821.4
370 K, 2990 kPa | 822.3
370 K, 3990 kPa | 823.2
370 K, 5010 kPa | 824
370 K, 10000 kPa | 828.1
370 K, 20010 kPa | 835.7
370 K, 29990 kPa | 842.6
370 K, 39990 kPa | 849.1
370 K, 49970 kPa | 855.1
390 K, 490 kPa | 805.7
390 K, 990 kPa | 806.2
390 K, 2000 kPa | 807.1
390 K, 3000 kPa | 808.1
390 K, 3990 kPa | 809
390 K, 5000 kPa | 810
390 K, 10000 kPa | 814.5
390 K, 19990 kPa | 822.7
390 K, 29980 kPa | 830.2
390 K, 40000 kPa | 837.2
390 K, 49990 kPa | 843.6
410 K, 490 kPa | 791
410 K, 990 kPa | 791.6
410 K, 2000 kPa | 792.7
410 K, 3000 kPa | 793.7
410 K, 3990 kPa | 794.8
410 K, 5000 kPa | 795.8
410 K, 10000 kPa | 800.8
410 K, 20000 kPa | 809.8
410 K, 30000 kPa | 817.9
410 K, 39990 kPa | 825.3
410 K, 50000 kPa | 832.2
430 K, 500 kPa | 776.2
430 K, 1000 kPa | 776.8
430 K, 1990 kPa | 778
430 K, 3000 kPa | 779.2
430 K, 3990 kPa | 780.3
430 K, 4990 kPa | 781.5
430 K, 9990 kPa | 786.9
430 K, 19990 kPa | 796.7
430 K, 29990 kPa | 805.5
430 K, 39990 kPa | 813.5
430 K, 49990 kPa | 820.8
450 K, 490 kPa | 761.2
450 K, 1000 kPa | 761.9
450 K, 1990 kPa | 763.2
450 K, 2990 kPa | 764.5
450 K, 3990 kPa | 765.8
450 K, 5000 kPa | 767.1
450 K, 10000 kPa | 773.1
450 K, 20000 kPa | 783.9
450 K, 29990 kPa | 793.3
450 K, 39990 kPa | 801.9
450 K, 50010 kPa | 809.7
470 K, 490 kPa | 746.3
470 K, 990 kPa | 747
470 K, 2000 kPa | 748.6
470 K, 2990 kPa | 750
470 K, 3990 kPa | 751.5
470 K, 5010 kPa | 752.9
470 K, 10000 kPa | 759.5
470 K, 19990 kPa | 771.2
470 K, 29990 kPa | 781.5
470 K, 39990 kPa | 790.6
470 K, 49970 kPa | 798.8

CCCCC/C=C\C/C=C\CCCCCCCC(=O)OC [methyl (Z,Z)-9,12-octadecadienate]
Conditions | mass density [kg/m3]
270 K, 490 kPa | 904.6
270 K, 990 kPa | 904.9
270 K, 1990 kPa | 905.4
270 K, 3000 kPa | 905.9
270 K, 3990 kPa | 906.5
270 K, 5000 kPa | 907
270 K, 10000 kPa | 909.6
270 K, 20000 kPa | 914.6
270 K, 29990 kPa | 919.3
270 K, 39990 kPa | 923.8
270 K, 49970 kPa | 928.2
290 K, 500 kPa | 889.7
290 K, 990 kPa | 890
290 K, 1990 kPa | 890.6
290 K, 2990 kPa | 891.2
290 K, 3990 kPa | 891.8
290 K, 5000 kPa | 892.4
290 K, 9990 kPa | 895.2
290 K, 19990 kPa | 900.7
290 K, 30000 kPa | 905.8
290 K, 39990 kPa | 910.7
290 K, 49970 kPa | 915.3
310 K, 500 kPa | 875.1
310 K, 1000 kPa | 875.4
310 K, 1990 kPa | 876.1
310 K, 2990 kPa | 876.7
310 K, 3990 kPa | 877.4
310 K, 4990 kPa | 878
310 K, 9990 kPa | 881.1
310 K, 20000 kPa | 887
310 K, 30000 kPa | 892.5
310 K, 39990 kPa | 897.8
310 K, 49990 kPa | 902.8
330 K, 490 kPa | 860.6
330 K, 990 kPa | 860.9
330 K, 1990 kPa | 861.6
330 K, 2990 kPa | 862.4
330 K, 3990 kPa | 863.1
330 K, 4990 kPa | 863.8
330 K, 9990 kPa | 867.1
330 K, 19990 kPa | 873.5
330 K, 29980 kPa | 879.5
330 K, 39990 kPa | 885.1
330 K, 50000 kPa | 890.4
350 K, 500 kPa | 846.2
350 K, 1000 kPa | 846.6
350 K, 1990 kPa | 847.4
350 K, 2990 kPa | 848.2
350 K, 3990 kPa | 848.9
350 K, 5000 kPa | 849.7
350 K, 9990 kPa | 853.4
350 K, 19990 kPa | 860.3
350 K, 29990 kPa | 866.7
350 K, 40000 kPa | 872.7
350 K, 49980 kPa | 878.4
370 K, 490 kPa | 831.6
370 K, 990 kPa | 832.1
370 K, 1990 kPa | 832.9
370 K, 2990 kPa | 833.8
370 K, 4000 kPa | 834.6
370 K, 5000 kPa | 835.5
370 K, 10000 kPa | 839.5
370 K, 19990 kPa | 847
370 K, 29990 kPa | 854
370 K, 39990 kPa | 860.4
370 K, 49980 kPa | 866.4
390 K, 490 kPa | 817.1
390 K, 990 kPa | 817.6
390 K, 1990 kPa | 818.5
390 K, 3000 kPa | 819.5
390 K, 3990 kPa | 820.4
390 K, 4990 kPa | 821.3
390 K, 9990 kPa | 825.8
390 K, 20000 kPa | 834
390 K, 29990 kPa | 841.4
390 K, 40000 kPa | 848.3
390 K, 49990 kPa | 854.7
410 K, 490 kPa | 802.5
410 K, 1000 kPa | 803
410 K, 2000 kPa | 804.1
410 K, 2990 kPa | 805.1
410 K, 3990 kPa | 806.2
410 K, 4990 kPa | 807.2
410 K, 9990 kPa | 812.1
410 K, 19990 kPa | 821
410 K, 29990 kPa | 829.1
410 K, 40000 kPa | 836.5
410 K, 49970 kPa | 843.3
430 K, 490 kPa | 787.5
430 K, 1000 kPa | 788.1
430 K, 1990 kPa | 789.3
430 K, 2990 kPa | 790.5
430 K, 3990 kPa | 791.6
430 K, 5000 kPa | 792.7
430 K, 9990 kPa | 798.1
430 K, 19990 kPa | 807.9
430 K, 29990 kPa | 816.6
430 K, 40000 kPa | 824.5
430 K, 50010 kPa | 831.8
450 K, 490 kPa | 772.5
450 K, 990 kPa | 773.2
450 K, 2000 kPa | 774.5
450 K, 2990 kPa | 775.8
450 K, 4000 kPa | 777.1
450 K, 4990 kPa | 778.3
450 K, 10000 kPa | 784.3
450 K, 19990 kPa | 794.9
450 K, 30000 kPa | 804.3
450 K, 39990 kPa | 812.8
450 K, 49980 kPa | 820.6
470 K, 500 kPa | 757.5
470 K, 990 kPa | 758.3
470 K, 1990 kPa | 759.7
470 K, 3000 kPa | 761.2
470 K, 3990 kPa | 762.6
470 K, 4990 kPa | 764
470 K, 9990 kPa | 770.6
470 K, 19990 kPa | 782.2
470 K, 29990 kPa | 792.4
470 K, 39990 kPa | 801.5
470 K, 49980 kPa | 809.7
